Entries after “also recorded” stand apart in the source; their conditions may differ.
Assays:
Format in all cases: cell-based, human
iPS-SMA cells = test: Nuclear gem localization (SMN immunostaining) in iPS-SMA-derived neurons and astrocytes after drug treatment; settings: 1 mM valproic acid or tobramycin; 2 days of drug treatment; gems counted in 100 nuclei; P<0.05, ANOVA
Method: (§1) Immunocytochemistry. Cells were fixed in 4% paraformaldehyde or 1:1 acetone/methanol for 20 min at room temperature and rinsed with PBS. Nonspecific labeling was blocked and the cells were permeabilized with 5% normal goat serum and/or 5% normal donkey serum containing 0.2% Triton X-100 in PBS for 30 min at room temperature. Cells were rinsed with PBS and then incubated with primary antibodies for 1 h at room temperature or overnight at 4° C. Cells were then labeled with the appropriate fluorescently tagged secondary antibodies. Hoechst nuclear dye was used to label nuclei. Gems were counted in 100 nuclei, and positively stained neurons were counted and measured on five areas on each of three coverslips using Metamorph software. All data were analyzed using Prizm statistical software.
(§2) Finally, we assessed whether SMN-inducing compounds could increase SMN levels in the iPS-SMA cellular context because this would be an important proof-of-principle for the further development of drug screens. […] We are at present assessing gem formation in differentiating motor neurons and have shown that they can indeed be detected (FIG. 14A, B).

iPS-WT cells = test: Nuclear gem localization (SMN immunostaining) in iPS-WT-derived neurons and astrocytes after drug treatment; settings: 1 mM valproic acid or tobramycin; 2 days of drug treatment
Method: as §1, §2

[1] = tested on: SMN protein in iPS-SMA cells; test: Western blot analysis of SMN protein in drug-treated iPS-SMA cells; settings: corrected to beta-actin, two days after drug treatment, 1 mM valproic acid or tobramycin, n=3
Method: Protein isolation and western blot analysis. Cells were isolated, suspended in 1% Triton X-100 lysis buffer supplemented with 1% protease inhibitor cocktail (Sigma), triturated and centrifuged at 16,060 g for 10 min at 4° C. Ten to twenty micrograms of protein was separated on 12% SDS-polyacrylamide gel, transferred to a nitrocellulose membrane and probed with a primary antibody against SMN (mouse monoclonal), followed by a horseradish-peroxidase-conjugated secondary antibody (Promega), and then visualized using ECL chemiluminescence (Amersham). As a control, the membrane was stripped and re-probed for beta-actin. For semiquantitative analysis, SMN signal intensity was analyzed and corrected with respect to beta-actin.
as §2, with “screens. SMN protein is found in both the cytoplasm and nuclear aggregate structures called gems, and the number of gems present is inversely correlated to disease severity (Coovert, D. D. et al. The survival motor neuron protein in spinal muscular atrophy, Hum. Mol. Genet. 6, 1205-1214, 1997).” for “screens.”

NC[C@H]1O[C@H](O[C@H]2[C@H](O)[C@@H](O[C@H]3O[C@H](CO)[C@@H](O)[C@H](N)[C@H]3O)[C@H](N)C[C@@H]2N)[C@H](N)C[C@@H]1O [tobramycin]
number of gems in treated compared to untreated iPS-SMA cells (iPS-SMA cells): significant increase in the number of gems; also recorded: significantly increased the number of gems | gem localization in treated compared to untreated iPS-WT cells (iPS-WT cells): no significant increase in gem localization | increase in SMN protein levels compared to untreated iPS-SMA cells [1]: 3 fold

CCCC(CCC)C(=O)O [valproic acid]
number of gems in treated compared to untreated iPS-SMA cells (iPS-SMA cells): significant increase in the number of gems; also recorded: significantly increased the number of gems | gem localization in treated compared to untreated iPS-WT cells (iPS-WT cells): no significant increase in gem localization | increase in SMN protein levels compared to untreated iPS-SMA cells [1]: 2 fold
